Source: patent US20030215462A1, “Use of UGT inhibitors to increase bioavailability” (priority 2001, published 2003)
Where “and” joins values, the source holds several entries; their conditions need not be identical. Equal entries are not always repeated.

Legend:
Assay type in all cases: biochemical
[1] = target: T1, UGT enzymes of human liver microsomes (Homo sapiens, UniProt P16662); experiment: Inhibition of zidovudine glucuronidation in human liver microsomes; conditions: liver lot 062101
T1 construct: residual metabolism (percentage of control), zidovudine glucuronidation; other: liver lot 062101; residual metabolism (percentage of control), zidovudine glucuronidation; residual metabolism (percentage of control)
T1 sequence (P16662 1-529): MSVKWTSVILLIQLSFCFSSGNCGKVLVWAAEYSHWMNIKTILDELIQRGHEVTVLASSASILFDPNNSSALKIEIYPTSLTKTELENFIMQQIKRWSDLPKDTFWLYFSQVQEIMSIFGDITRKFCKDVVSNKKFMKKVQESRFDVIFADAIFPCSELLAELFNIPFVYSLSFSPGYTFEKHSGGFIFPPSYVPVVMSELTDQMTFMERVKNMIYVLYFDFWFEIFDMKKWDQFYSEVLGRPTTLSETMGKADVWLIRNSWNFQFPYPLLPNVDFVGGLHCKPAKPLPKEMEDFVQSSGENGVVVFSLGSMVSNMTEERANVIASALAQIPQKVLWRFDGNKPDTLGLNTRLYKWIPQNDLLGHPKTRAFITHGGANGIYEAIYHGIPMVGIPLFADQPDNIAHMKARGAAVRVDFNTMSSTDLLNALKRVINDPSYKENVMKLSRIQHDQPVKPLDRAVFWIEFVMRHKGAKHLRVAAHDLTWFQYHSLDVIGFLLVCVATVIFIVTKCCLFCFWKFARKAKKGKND
Method: Compounds were eluted using a binary solvent gradient system where solvent A was dilute phosphoric acid (pH 3) and solvent B was acetonitrile.
Standardized incubations utilized 500 μM zidovudine substrate, 1 mg/ml microsomal protein, 5 mM UDPGA and a 30 min incubation time. […] Int.

[2] = tested on: T2, UGT enzymes of human liver microsomes; experiment: Inhibition of 7-HFC glucuronidation in human liver microsomes; conditions: for % of control metabolism (SD, n = 3), 7-HFC glucuronidation: 7-HFC 50 μM, human liver microsomes 100 μg/ml, 15 min
T2 construct: percentage of control metabolism, 7-HFC glucuronidation; percentage of control metabolism, 7-HFC glucuronidation

[3] = tested on: T3, UGT enzymes of human liver microsomes; experiment: Inhibition of labetalol glucuronidation (LG1, LG2) in human liver microsomes; conditions: labetalol 50 μM; inhibitor 100 μM
T3 construct: residual metabolism (percentage of control), labetalol LG1; other: labetalol 50 μM; residual metabolism (percentage of control), labetalol LG1; residual metabolism (percentage of control), labetalol LG2; inhi
Method: Supernatants were analyzed by HPLC with fluorescence detection.
Compounds were eluted using a binary solvent gradient system where solvent A was 5:5:90 tetrahydrofuran-acetonitrile-(NH4)2HPO4 50 mM, while solvent B was 25:25:50 tetrahydrofuran-acetonitrile-(NH4)2HPO4 50 mM. Solvent flow rate was 0.75 ml/min and the column temperature was ambient. […] Labetalol and metabolites were measured by fluorescence detection using a Jasco model FP920 detector. Excitation and emission wavelengths were 370 nm 418 nm respectively. Retention times for salicylamide internal standard and labetalol were 6.6 min and 15.0 min respectively.

[4] = tested on: UGT enzymes of human liver microsomes; experiment: Inhibition of raloxifene glucuronidation (G1, G2) in human liver microsomes; conditions: raloxifene 50 μM, human liver microsomes 250 μg/ml, 15 min
From the text: Compounds were eluted using a binary solvent gradient system. […] Solvent B was methanol. […] Detection was at 280 nm.

[5] = tested on: UGT enzymes of pooled human jejunum microsomes; experiment: Inhibition of 2ME2 glucuronidation (MG1) in pooled human jejunum microsomes; conditions: jejunum HJ61, 2ME2 50 μM
From the text: (§1) Compounds were eluted using a binary solvent gradient system where solvent A was dilute phosphoric acid (pH 3) and solvent B was 80:20 acetonitrile-methanol. […] Detection was at 280 nm.

[6] = tested on: T4, UGT enzymes of human liver microsomes; experiment: Inhibition of 2ME2 glucuronidation (MG1, MG2) in human liver microsomes; conditions: liver 062101, 2ME2 50 μM
T4 construct: other: liver 062101
From the text: as §1

Compound | residual metabolism (percentage of control), zidovudine glucuronidation ([1]; inhibitor 500 μM) | % of control metabolism (SD, n = 3), 7-HFC glucuronidation ([2]; inhibitor 100 μM) | % of control metabolism (SD, n = 3), 7-HFC glucuronidation ([2]; inhibitor 200 μM) | % of control metabolism (SD, n = 3), 7-HFC glucuronidation ([2]; inhibitor 500 μM) | % of control metabolism (SD, n = 3), raloxifene glucuronide G1 ([4]; inhibitor 500 μM) | % of control metabolism (SD, n = 3), raloxifene glucuronide G2 ([4]; inhibitor 500 μM) | residual metabolism (percentage of control), zidovudine glucuronidation ([1]; inhibitor 1000 μM) | % of control metabolism (SD, n = 3), raloxifene glucuronide G1 ([4]; inhibitor 100 μM) | % of control metabolism (SD, n = 3), raloxifene glucuronide G2 ([4]; inhibitor 100 μM) | also measured
Oc1cc(O)c2c(c1)O[C@H](c1cc(O)c(O)c(O)c1)[C@H](O)C2 [Epigallocatechin] | 90 (3) % | 77 (1) % | 90 (1) % | 81 (4) % | 65 (4) % | 79 (4) % | – | – | – | residual metabolism (percentage of control), labetalol LG1 [3]: 96 (7) %; residual metabolism (percentage of control), labetalol LG2 [3]: 87 (5) %
CCCCCCCCC(=O)NCc1ccc(O)c(OC)c1 [N-Vanillylnonanamide] | 67 (1) % | 69 (1) % | 63 (2) % | 48 (1) % | 14 (1) % | 17 (2) % | 40 (1) % | 48 (1) % | 62 (1) % | percentage of control metabolism, 7-HFC glucuronidation ([2]; inhibitor 100 μM): 69 (1) %; percentage of control metabolism, 7-HFC glucuronidation ([2]; inhibitor 200 μM): 63 (2) %; percentage of control metabolism, 7-HFC glucuronidation ([2]; inhibitor 500 μM): 48 (1) %
O=C1C[C@@H](c2ccc(O)cc2)Oc2cc(O)cc(O)c21 [Naringenin] | 48 (7) % and 34 (4) % | – | – | 63 (1) % | – | – | 15 (3) % | 34 (2) % | 40 (2) % | residual metabolism (percentage of control), zidovudine glucuronidation ([1]; inhibitor 200 μM): 64 (3) %; residual metabolism (% of control), 2ME2 MG1 ([5]; inhibitor 50 μM): 78 (2) %; residual metabolism (% of control), 2ME2 MG1 ([5]; inhibitor 100 μM): 79 (5) %; residual metabolism (% of control), 2ME2 MG1 ([6]; inhibitor 25 μM): 76 (1) %; residual metabolism (% of control), 2ME2 MG2 ([6]; inhibitor 25 μM): 53 (4) %; residual metabolism (% of control), 2ME2 MG1 ([6]; inhibitor 50 μM): 47 (3) %; residual metabolism (% of control), 2ME2 MG2 ([6]; inhibitor 50 μM): 26 (5) %; residual metabolism (% of control), 2ME2 MG1 ([6]; inhibitor 100 μM): 21 (4) %; residual metabolism (% of control), 2ME2 MG2 ([6]; inhibitor 100 μM): 19 (0) %; % of control metabolism (SD, n = 3), raloxifene glucuronide G1 ([4]; inhibitor 50 μM): 54 (4) %; % of control metabolism (SD, n = 3), raloxifene glucuronide G2 ([4]; inhibitor 50 μM): 71 (9) %
